Results taken from ChEMBL document CHEMBL6134842, “Acetal functionalized iminosugars for targeting β-glucocerebrosidase modulation” (Eur J Med Chem, 2025).
Changes are numbered by the printed parent chain. Active and inactive are the calls of the source. No cut-off for these calls is given here.

Experiments:
[1] = system: T1, Lysosomal acid glucosylceramidase (Homo sapiens), P04062 [L483P]; assay: Modulation of GCase L444P/L444P mutant in Gaucher patient-derived human fibroblasts assessed as fold increase in GCase rescue at 50 uM incubated for 4 days by fluorescence based lysed cell assay relative to control; details: Fibroblast, filed as modulator, time 4.0 day
T1 sequence (whole entry): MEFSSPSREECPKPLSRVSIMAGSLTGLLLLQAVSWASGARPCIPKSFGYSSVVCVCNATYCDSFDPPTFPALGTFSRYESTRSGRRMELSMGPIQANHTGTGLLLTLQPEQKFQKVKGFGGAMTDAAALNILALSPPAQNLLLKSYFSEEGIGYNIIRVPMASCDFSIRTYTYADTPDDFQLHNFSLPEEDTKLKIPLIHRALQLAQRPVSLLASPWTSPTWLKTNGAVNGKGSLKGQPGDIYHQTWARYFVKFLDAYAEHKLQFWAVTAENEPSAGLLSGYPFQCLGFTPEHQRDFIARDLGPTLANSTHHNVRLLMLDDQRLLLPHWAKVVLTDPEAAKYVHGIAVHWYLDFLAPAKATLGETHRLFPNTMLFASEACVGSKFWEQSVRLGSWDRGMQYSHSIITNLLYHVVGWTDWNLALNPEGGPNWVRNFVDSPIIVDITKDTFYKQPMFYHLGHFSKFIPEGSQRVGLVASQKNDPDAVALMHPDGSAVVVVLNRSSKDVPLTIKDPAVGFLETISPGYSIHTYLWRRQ

[2] = system: T1, Lysosomal acid glucosylceramidase (Homo sapiens), P04062 [L483P]; assay: Modulation of GCase L444P/L444P mutant in Gaucher patient-derived human fibroblasts assessed as GCase rescue at 10 uM incubated for 4 days by fluorescence based lysed cell assay; details: Fibroblast, filed as modulator, time 4.0 day
[3] = system: Lysosomal acid glucosylceramidase (Homo sapiens), P04062 [UNDEFINED MUTATION]; assay: Modulation of GCase N370S/RecNcil mutant in Gaucher patient-derived human fibroblasts assessed as fold increase in GCase rescue at 100 uM incubated for 4 days by fluorescence based lysed cell assay relative to control; details: Fibroblast, filed as modulator, time 4.0 day
Chain of Lysosomal acid glucosylceramidase (Homo sapiens), P04062 [UNDEFINED MUTATION] (P04062 whole entry, looked up, stated change not applied): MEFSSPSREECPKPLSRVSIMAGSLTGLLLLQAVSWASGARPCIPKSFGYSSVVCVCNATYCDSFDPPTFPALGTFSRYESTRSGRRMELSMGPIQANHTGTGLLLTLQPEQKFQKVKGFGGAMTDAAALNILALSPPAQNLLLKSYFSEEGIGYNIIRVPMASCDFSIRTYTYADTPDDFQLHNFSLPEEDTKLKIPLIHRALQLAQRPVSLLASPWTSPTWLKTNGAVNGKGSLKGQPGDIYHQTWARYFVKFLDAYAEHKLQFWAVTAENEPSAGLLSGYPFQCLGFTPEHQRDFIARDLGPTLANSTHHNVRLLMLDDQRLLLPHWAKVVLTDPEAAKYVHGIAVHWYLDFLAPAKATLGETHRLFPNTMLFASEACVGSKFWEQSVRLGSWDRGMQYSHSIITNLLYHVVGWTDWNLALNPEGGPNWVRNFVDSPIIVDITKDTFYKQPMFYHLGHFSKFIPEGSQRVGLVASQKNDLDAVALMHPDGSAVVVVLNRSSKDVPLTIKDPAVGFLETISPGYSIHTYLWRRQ

[4] = system: Lysosomal acid glucosylceramidase (Homo sapiens), P04062 [UNDEFINED MUTATION]; assay: Modulation of GCase N370S/RecNcil mutant in Gaucher patient-derived human fibroblasts assessed as fold increase in GCase rescue at 10 uM incubated for 4 days by fluorescence based lysed cell assay relative to control; details: Fibroblast, filed as modulator, time 4.0 day
[5] = Stability of compound at pH 5.8 assessed as compound hydrolysis measured after 6 days by 1H NMR spectroscopy; type: physicochemical; details: buffer, pH 5.8, 144 h; time 6 day
[6] = target: T2, Lysosomal acid glucosylceramidase (Homo sapiens) (UniProt P04062); assay: Inhibition of lysosomal GCase in human leucocytes using 4-methylumbelliferyl-beta-D-glucopyranoside as substrate at 1 mM measured 36 hrs by fluorescence based assay relative to control; type: cell-based; details: Leucocyte
T2 sequence (whole entry): T1 sequence (whole entry) with P483L

[7] = target: T2, Lysosomal acid glucosylceramidase (Homo sapiens); assay: Inhibition of lysosomal GCase in human leucocytes using 4-methylumbelliferyl-beta-D-glucopyranoside as substrate at 1 mM measured after 12 hrs by fluorescence based assay relative to control; type: cell-based; details: Leucocyte
[8] = Stability of compound at pH 5.8 assessed as compound remaining measured after 1 hr by 1H NMR spectroscopy; type: physicochemical; details: buffer, read-out: Stability
[9] = target: T3, Lysosomal acid glucosylceramidase (Homo sapiens, UniProt P04062); assay: Non-competitive inhibition of lysosomal GCase in human leucocytes using 4-methylumbelliferyl-beta-D-glucopyranoside as substrate incubated for 1 hr by fluorescence based assay; type: cell-based, Leucocyte
T3 sequence (P04062 whole entry): T1 sequence (whole entry) with P483L

[10] = target: T2, Lysosomal acid glucosylceramidase (Homo sapiens); assay: Inhibition of lysosomal GCase in human leucocytes using 4-methylumbelliferyl-beta-D-glucopyranoside as substrate incubated for 1 hr by Lineweaver-burk plot analysis; type: cell-based; details: Leucocyte
[11] = target: T2, Lysosomal acid glucosylceramidase (Homo sapiens); assay: Inhibition of lysosomal GCase in human leucocytes using 4-methylumbelliferyl-beta-D-glucopyranoside as substrate at 1 mM measured immediately by fluorescence based assay relative to control; type: cell-based; details: Leucocyte
[12] = Stability of compound at pH 7 assessed as compound remaining measured after 4 days by 1H NMR spectroscopy; type: physicochemical; details: buffer, time 4 day, read-out: Stability
[13] = target: T2, Lysosomal acid glucosylceramidase (Homo sapiens); assay: Inhibition of lysosomal GCase in human leucocytes using 4-methylumbelliferyl-beta-D-glucopyranoside as substrate at 1 mM incubated for 1 hr by fluorescence based assay relative to control; type: cell-based; details: Leucocyte
[14] = target: T2, Lysosomal acid glucosylceramidase (Homo sapiens); assay: Non-competitive inhibition of lysosomal GCase in human leucocytes using 4-methylumbelliferyl-beta-D-glucopyranoside as substrate assessed as reduction in apparent Vmax incubated for 1 hr by fluorescence based assay; type: cell-based; details: Leucocyte
[15] = system: T1, Lysosomal acid glucosylceramidase (Homo sapiens), P04062 [L483P]; assay: Modulation of GCase L444P/L444P mutant in Gaucher patient-derived human fibroblasts assessed as fold increase in GCase rescue at 100 uM incubated for 4 days by fluorescence based lysed cell assay relative to control; details: Fibroblast, filed as modulator, time 4.0 day
[16] = system: Lysosomal acid glucosylceramidase (Homo sapiens), P04062 [UNDEFINED MUTATION]; assay: (§1) Modulation of GCase N370S/RecNcil mutant in Gaucher patient-derived human fibroblasts using 4-methylumbelliferyl beta-D-glucopyranoside as substrate assessed as fold increase in GCase rescue at 30 uM preincubated for 4 days followed by compound washout and substrate addition measured after 2 hrs by fluorescence based intact cell enzyme assay relative to control; details: Fibroblast, filed as modulator, time 4.0 day
[17] = target: T2, Lysosomal acid glucosylceramidase (Homo sapiens); assay: Inhibition of lysosomal GCase in human leucocytes using 4-methylumbelliferyl-beta-D-glucopyranoside as substrate at 1 mM measured 24 hrs by fluorescence based assay relative to control; type: cell-based; details: Leucocyte
[18] = system: T1, Lysosomal acid glucosylceramidase (Homo sapiens), P04062 [L483P]; assay: as §1, with “L444P/L444P” for “N370S/RecNcil”; details: Fibroblast, filed as modulator, time 4.0 day
[19] = target: T2, Lysosomal acid glucosylceramidase (Homo sapiens); assay: Non-competitive inhibition of lysosomal GCase in human leucocytes using 4-methylumbelliferyl-beta-D-glucopyranoside as substrate assessed as unchanged Km incubated for 1 hr by fluorescence based assay; type: cell-based; details: Leucocyte
[20] = system: Lysosomal acid glucosylceramidase (Homo sapiens), P04062 [UNDEFINED MUTATION]; assay: as §1, with “as” for “as fold increase in”, “10 to 100” for “30”, “assay” for “assay relative to control”; details: Fibroblast, dose 10-100 µM, time 4.0 day
[21] = Antioxidant activity assessed as DPPH radical scavenging activity at 200 umol measured after 10 mins relative to control; type: functional; details: dose 200.0 µmol
[22] = Antioxidant activity assessed as inhibition of DPPH radical scavenging activity measured after 10 mins relative to control; type: functional
[23] = system: Lysosomal acid glucosylceramidase (Homo sapiens), P04062 [UNDEFINED MUTATION]; assay: Modulation of GCase N370S/RecNcil mutant in Gaucher patient-derived human fibroblasts assessed as fold increase in GCase rescue at 50 uM incubated for 4 days by fluorescence based lysed cell assay relative to control; details: Fibroblast, filed as modulator, time 4.0 day
[24] = system: T1, Lysosomal acid glucosylceramidase (Homo sapiens), P04062 [L483P]; assay: Modulation of GCase L444P/L444P mutant in Gaucher patient-derived human fibroblasts assessed as GCase rescue at 10 to 100 uM incubated for 4 days by fluorescence based lysed cell assay; details: Fibroblast, dose 10-100 µM, time 4.0 day
[25] = system: Lysosomal acid glucosylceramidase (Homo sapiens), P04062 [UNDEFINED MUTATION]; assay: Modulation of GCase N370S/RecNcil mutant in Gaucher patient-derived human fibroblasts assessed as fold increase in GCase rescue at 20 uM incubated for 4 days by fluorescence based lysed cell assay relative to control; details: Fibroblast, filed as modulator, time 4.0 day
[26] = system: Lysosomal acid glucosylceramidase (Homo sapiens), P04062 [UNDEFINED MUTATION]; assay: Modulation of GCase N370S/RecNcil mutant in Gaucher patient-derived human fibroblasts assessed as GCase rescue at 10 to 100 uM incubated for 4 days by fluorescence based lysed cell assay; details: Fibroblast, dose 10-100 µM, time 4.0 day
[27] = Antioxidant activity assessed as DPPH radical scavenging activity at 400 umol measured after 10 mins relative to control; type: functional; details: dose 400.0 µmol

For Nc1c(Br)cc(Br)cc1CN[C@H]1CC[C@H](O)CC1, which fold change (FC) [1] is on record?
The fold change (FC) was 1.3.

For OC1[C@H](O)CN(CC[C@H]2COC(OCc3ccc(-c4ccccc4)cc3)O2)C[C@H]1O (some centres not stated), which fold change (FC) [2] is on record?
Its fold change (FC) is 2.03.

And the fold change (FC) [3]?
The fold change (FC) was 1.61.

And the fold change (FC) [1]?
Its fold change (FC) is 2.11.

With OC[C@H]1CNC[C@@H](O)[C@@H]1O as the compound, how does the fold change (FC) [4] read?
The fold change (FC) was 2.

Which Stability [5] does the source give for OC1[C@H](O)CN(CC[C@H]2COC(c3ccc(Br)cc3)O2)C[C@H]1O (some centres not stated) here?
The Stability was “Stable”.

And the inhibition [6]?
The inhibition was 76%.

And the inhibition [7]?
The inhibition was 77%.

What about the remaining at 1 h [8] of the same compound?
Its remaining at 1 h is > 95%.

And the fold change (FC) [3]?
Its fold change (FC) is 1.83.

What about the IC50 [9] of the same compound?
Its IC50 is 100 µM.

And the inhibition [10]?
Its inhibition is “Active; The Secondary Plot Was Concave Upward, Rather Than Linear, Thus Confirming That Inhibitory Effect Arises From The Binding Of More Than One Molecule Of Compound On Enzyme Surface; Not Attributable To A Cooperativity Phenomenon”.

And the inhibition [11]?
The inhibition was 80%.

And the remaining at 96 h [12]?
The remaining at 96 h was > 95%.

And the inhibition [13]?
The inhibition was 75%.

And the inhibition [14]?
Its inhibition is “Active”.

And the fold change (FC) [15]?
The fold change (FC) was 1.56.

What about the fold change (FC) [16] of the same compound?
The fold change (FC) was 1.46.

What about the inhibition [17] of the same compound?
Its inhibition is 80%.

And the fold change (FC) [18]?
Its fold change (FC) is 1.26.

What about the inhibition [19] of the same compound?
The inhibition was “Active”.

With COc1cc(/C=C/C2OC[C@H](CCN3C[C@@H](O)C(O)[C@H](O)C3)O2)ccc1O (some centres not stated) as the compound, how does the Activity [20] read?
The Activity was “inactive”.

And the inhibition [6]?
Its inhibition is 47%.

And the inhibition [7]?
The inhibition was 69%.

What about the remaining at 1 h [8] of the same compound?
The remaining at 1 h was 87%.

What about the fold change (FC) [3] of the same compound?
The fold change (FC) was 1.5.

And the inhibition [11]?
Its inhibition is 75%.

What about the remaining at 96 h [12] of the same compound?
Its remaining at 96 h is 72%.

And the inhibition [13]?
The inhibition was 84%.

And the fold change (FC) [1]?
The fold change (FC) was 1.3.

And the inhibition [17]?
Its inhibition is 55%.

And the Activity [21]?
The Activity was 67%.

Which inhibition [22] does the source give for Cc1cc(C(C)(C)C)c(O)c(C(C)(C)C)c1 here?
The inhibition was > 95%.

Which fold change (FC) [23] does the source give for CCCCCCCCCCCCOC1OC[C@H](CCN2C[C@@H](O)C(O)[C@H](O)C2)O1 (some centres not stated) here?
The fold change (FC) was 1.92.

What about the fold change (FC) [2] of the same compound?
The fold change (FC) was 1.24.

And the fold change (FC) [1]?
Its fold change (FC) is 2.15.

What about the fold change (FC) [4] of the same compound?
Its fold change (FC) is 2.06.

Which Stability [5] does the source give for O=[N+]([O-])c1ccc(C2OC[C@H](CCN3C[C@@H](O)C(O)[C@H](O)C3)O2)cc1 (some centres not stated) here?
Its Stability is “Stable”.

And the remaining at 1 h [8]?
The remaining at 1 h was > 95%.

And the fold change (FC) [3]?
Its fold change (FC) is 1.6.

And the IC50 [9]?
Its IC50 is 300 µM.

And the remaining at 96 h [12]?
The remaining at 96 h was > 95%.

What about the inhibition [13] of the same compound?
The inhibition was 77%.

And the Activity [24]?
The Activity was “inactive”.

Which results are given for CCCCOC1OCC(CNC(=S)N2C[C@H](O)[C@@H](O)[C@H](O)[C@H]2CO)O1 (some centres not stated)?
fold change (FC) [25]: 1.5; Activity [24]: inactive

What does the source list for COc1cc(C2OC[C@H](CCN3C[C@@H](O)C(O)[C@H](O)C3)O2)ccc1O (some centres not stated)?
remaining at 1 h [8]: 82%; Activity [26]: inactive; remaining at 96 h [12]: 61%; Activity [27]: 14%; inhibition [13]: 70%; Activity [24]: inactive
